Experimental data reported in article PMC12652692, “Synthesis and In Vitro Anticancer Evaluation of Novel Phosphonium Derivatives of Chrysin” (International Journal of Molecular Sciences, 2025).
“Also recorded” adds a separate entry of the source. Where two headings read alike, the source gives them in different places.

Assays:
[1] = test system: NIH/3T3 (fibroblast); assay: MTT antiproliferative assay; assay type: cell-based, murine; details: Mus musculus; for inhibition at 10 µM: NIH3T3, 10 μM; for IC50: NIH3T3, read-out: IC50 Value (μM) ± SEM
Description: (§1) As the NCI has not been accepting compound submissions from investigators outside the USA for NCI-60 testing since 2024, chrysin derivatives 3i, 3j, and 5 were instead evaluated in additional viability assays against a simplified panel of human cancer cell lines representing breast (MCF-7 and MDA-MB-231), cervical (HeLa and SiHa), and ovarian cancers. A nonmalignant fibroblast cell line (NIH/3T3) was also used to obtain preliminary results describing the cancer selectivity of the test substances. […] The two effective agents were further investigated using a broad concentration range (0.1–30 µM), and their IC50 values were calculated (Table 3).
(§2) The cell growth-inhibiting properties of compounds 3i, 3j, and 5 were determined by means of the MTT assay against a panel of human malignant cell lines of gynecological origin [8, 27, 40]. The panel included breast (MCF-7 and MDA-MB-231; Cellosaurus accessions: CVCL_0031 and CVCL_0062, respectively), cervical (HeLa and SiHa; CVCL_0030 and CVCL_0032, respectively), and ovarian (A2780; CVCL_0134) cell lines. Nonmalignant murine NIH/3T3 (CVCL_0594) fibroblasts were also used to obtain results characterizing the cancer selectivity of the tested substances. The whole assay was performed as described earlier. […] All applied cell lines were obtained from the European Collection of Cell Cultures (Salisbury, UK), except for SiHa (American Tissue Culture Collection, Manassas, VA, USA). Cisplatin, a clinically available anticancer drug, was included as a reference compound. All experiments were conducted twice, with at least five replicates per condition.

[2] = test system: MCF-7 cells; assay: Wound-healing assay (migration); assay type: cell-based, human
Method: The effect of the selected compound on the migration of MCF-7 cells was investigated by means of the wound-healing assay.
The effect of substance 3i on the migration of the treated cancer cells was determined using a wound-healing assay, as presented earlier. Briefly, MCF-7 cells were trypsinized and plated into wound assay chambers (ibidi GmbH, Martinsried, Germany) at a density of 40,000 cells/insert, and the plate was incubated under standard conditions to allow proper attachment. Then, the inserts were carefully removed, and the cells were subsequently treated with 3i in fresh medium containing 2% FBS. The cell migration was recorded using a phase-contrast inverted microscope (Nikon Instruments Europe, Amstelveen, The Netherlands) fitted with a CCD camera (QImaging MicroPublisher Color RTV5.0 Teledyne Photometrics, Tucson, AZ, USA). The cell-free areas in treated samples and controls were determined using ImageJ software 1.54d (National Institutes of Health, Bethesda, MD, USA). The assays were performed in triplicates and all the statistical analyses were carried out by means of GraphPad Prism software.

[3] = test system: MCF-7; assay: MTT antiproliferative assay; assay type: cell-based, human; details: for inhibition at 10 µM / inhibition at 30 µM / IC50: Homo sapiens, MCF7; for inhibition at 10 µM: MCF-7, 10 μM; for inhibition at 30 µM: MCF-7, 30 μM; for IC50: MCF-7, read-out: IC50 Value (μM) ± SEM; for Selectivity Ratio: IC50 on NIH/3T3 fibroblasts / IC50 on MCF-7
Description: as §1, §2

[4] = test system: MDA-MB-231; assay: MTT antiproliferative assay; assay type: cell-based, human; details: for IC50 / inhibition at 10 µM / inhibition at 30 µM: Homo sapiens; for IC50: read-out: IC50 Value (μM) ± SEM; for inhibition at 10 µM: MDA-MB-231, 10 μM; for inhibition at 30 µM: MDA-MB-231, 30 μM; for Selectivity Ratio: IC50 on NIH/3T3 fibroblasts / IC50 on MDA-MB-231
Description: as §1, §2

[5] = test system: SiHa; assay: MTT antiproliferative assay; assay type: cell-based, human; details: for IC50 / inhibition at 10 µM / inhibition at 30 µM: Homo sapiens, SiHa; for IC50: read-out: IC50 Value (μM) ± SEM; for Selectivity Ratio: IC50 on NIH/3T3 fibroblasts / IC50 on SiHa
Description: as §1, §2

[6] = test system: HeLa; assay: MTT antiproliferative assay; assay type: cell-based, human; details: for IC50 / inhibition at 10 µM / inhibition at 30 µM: Homo sapiens, HeLa; for IC50: read-out: IC50 Value (μM) ± SEM; for Selectivity Ratio: IC50 on NIH/3T3 fibroblasts / IC50 on HeLa
Description: as §1, §2

[7] = test system: A2780; assay: MTT antiproliferative assay; assay type: cell-based, human; details: for IC50 / inhibition at 10 µM / inhibition at 30 µM: Homo sapiens; for IC50: read-out: IC50 Value (μM) ± SEM; for inhibition at 10 µM: A2780, 10 μM; for inhibition at 30 µM: A2780, 30 μM; for Selectivity Ratio: IC50 on NIH/3T3 fibroblasts / IC50 on A2780
Description: as §1, §2

[8] = test system: MCF-7 cells; assay: Cell cycle analysis by flow cytometry; assay type: cell-based, human; details: MCF-7, 0.3 and 0.6 µM
Method: The observed cell cycle disturbance is consistent with a blockade at the G1–S transition, which triggers apoptotic cell death.
Cell cycle analysis by flow cytometry was applied to characterize the effects of 3i on the phase distribution of the treated cells. MCF-7 cells were seeded onto 12-well plates (200,000 cells/well) and incubated overnight. They were then treated with 0.3 or 0.6 μM for 24 or 48 h. After the treatment, the propidium iodide-labeled cells were analyzed using a CytoFLEX instrument (Beckman Coulter, Brea, CA, USA), and at least 20,000 cells per sample were evaluated, as described in a recent publication. The obtained data were processed using ModFit LT 3.3.11 software (Verity Software House, Topsham, ME, USA) as referenced by Vermes et al..

[9] = test system: panel of human malignant cell lines of gynecological origin; assay: MTT antiproliferative assay, whole panel; assay type: cell-based; details: for inhibition at 10 µM / IC50: Homo sapiens; for inhibition at 10 µM: across the tested cell lines, read-out: inhibition rates; for IC50: HeLa, SiHa, MCF-7, MDA-MB-231, A2780, read-out: IC50 values (range over cancer cell lines)
Description: as §1
Besides the cell growth-inhibiting potency, cancer selectivity is a crucial factor determining the perspective of a drug candidate. This property is expressed as a selectivity ratio, i.e., the ratio of the compound’s IC50 obtained on the non-cancerous fibroblasts and those from the cancer cell lines. A higher ratio indicates more promising cancer selectivity (Table 3). […] Based on these efficacy and selectivity data, further cell-based studies were performed with 3i against MCF-7 breast cancer cells.
as §2

[10] = test system: MDA-MB-231; design: method as in PMID 40332477; details: published earlier ref 8, read-out: IC50 Value (μM) ± SEM; cited from earlier work
[11] = test system: SiHa; design: method as in PMID 40332477; details: published earlier ref 8, read-out: IC50 Value (μM) ± SEM; cited from earlier work
[12] = test system: NIH/3T3 (fibroblast); design: method as in PMID 40332477; details: published earlier ref 8, read-out: IC50 Value (μM) ± SEM; cited from earlier work
[13] = test system: HeLa; design: method as in PMID 40332477; details: published earlier ref 8, read-out: IC50 Value (μM) ± SEM; cited from earlier work
[14] = test system: MCF-7; design: method as in PMID 40332477; details: published earlier ref 8, read-out: IC50 Value (μM) ± SEM; cited from earlier work
[15] = test system: A2780; design: method as in PMID 40332477; details: published earlier ref 8, read-out: IC50 Value (μM) ± SEM; cited from earlier work
[16] = read-out: Growth Inhibition (%) ± SEM
[17] = NIH3T3, 30 μM, read-out: Growth Inhibition (%) ± SEM
[18] = read-out: Growth Inhibition (%) ± SEM (converted)
[19] = heading: Growth Inhibition ± SEM
[20] = MDA-MB-231, heading: Growth Inhibition ± SEM
[21] = A2780, heading: Growth Inhibition ± SEM

Structure (SMILES): COc1ccccc1[P+](CCCCOc1cc(O)c2c(=O)cc(-c3ccccc3)oc2c1)(c1ccccc1)c1ccccc1 [3i]
- inhibition at 10 µM [1, 16]: 97.73 ± 0.53%
- inhibition at 30 µM [1, 17]: 98.5%
- IC50 [1]: 1.66 ± 0.15 µM
- inhibition of migration ([2]; MCF-7, 24 h): significant inhibition in the migration capacity at a concentration of 0.3 μM only
- inhibition of migration ([2]; MCF-7, 48 h): significant even at subantiproliferative concentration (0.1 μM)
- inhibition at 10 µM [3, 16]: 95.4 ± 1.54%
- inhibition at 30 µM [3, 16]: 95.8 ± 1.46%
- IC50 [3]: 0.26 ± 0.02 µM
- Selectivity Ratio [3]: 6.38
- IC50 ([4]; MDA-MB-231): 0.54 ± 0.02 µM
- inhibition at 10 µM [4, 16]: 88.6 ± 3.72%
- inhibition at 30 µM [4, 18]: 87.4%
- Selectivity Ratio [4]: 3.07
- IC50 [5]: 1.15 ± 0.03 µM
- inhibition at 10 µM [5, 16]: 83.2 ± 2.13%
- inhibition at 30 µM [5, 18]: 104%
- Selectivity Ratio [5]: 1.44
- IC50 [6]: 1.08 ± 0.02 µM
- inhibition at 10 µM [6, 16]: 96.5 ± 2.76%
- inhibition at 30 µM [6, 18]: 98.9%
- Selectivity Ratio [6]: 1.54
- IC50 ([7]; A2780): 0.66 ± 0.03 µM
- inhibition at 10 µM [7, 16]: 96.85 ± 0.37%
- inhibition at 30 µM [7, 18]: 98.3%
- Selectivity Ratio [7]: 2.52
- cell cycle distribution ([8]; 24 h): significantly increased the proportion of the G0/G1 cell population
- cell cycle distribution ([8]; 48 h): statistically significant accumulation of the hypodiploid (SubG1) cell population
- inhibition at 10 µM [9]: > 80%
- IC50 [9]: 260 to 1150 nM

Structure (SMILES): CC(C)(C)[P+](CCCCOc1cc(O)c2c(=O)cc(-c3ccccc3)oc2c1)(c1ccccc1)c1ccccc1 [3j]
- inhibition at 10 µM [1, 16]: 98.38 ± 0.53%
- inhibition at 30 µM [1, 17]: 99%
- IC50 [1]: 1.96 ± 0.01 µM
- inhibition at 10 µM [3, 16]: 98.65 ± 0.29%
- inhibition at 30 µM [3, 16]: 98.68 ± 0.32%
- IC50 [3]: 0.88 ± 0.01 µM
- Selectivity Ratio [3]: 2.23
- IC50 ([4]; MDA-MB-231): 1.24 ± 0.02 µM
- inhibition at 10 µM [4, 16]: 98 ± 1.03%
- inhibition at 30 µM [4, 18]: 98.1 ± 0.13%
- Selectivity Ratio [4]: 1.58
- IC50 [5]: 1.47 ± 0.01 µM
- inhibition at 10 µM [5, 16]: 97.91 ± 0.06%
- inhibition at 30 µM [5, 18]: 97.81 ± 0.46%
- Selectivity Ratio [5]: 1.33
- IC50 [6]: 2.93 ± 0.02 µM
- inhibition at 10 µM [6, 16]: 96.64 ± 0.26%
- inhibition at 30 µM [6, 18]: 97.5%
- Selectivity Ratio [6]: 0.67
- IC50 ([7]; A2780): 1.37 ± 0.04 µM
- inhibition at 10 µM [7, 16]: 98.77 ± 0.19%
- inhibition at 30 µM [7, 18]: 98.96 ± 0.381%
- Selectivity Ratio [7]: 1.43
- inhibition at 10 µM [9]: > 80%
- IC50 [9]: 880 to 2930 nM

Structure (SMILES): N.N.[Cl][Pt][Cl] [Cisplatin]
- Selectivity Ratio [3]: 1.04
- Selectivity Ratio [4]: 0.14
- Selectivity Ratio [5]: 0.17
- Selectivity Ratio [6]: 0.20
- Selectivity Ratio [7]: 1.93
- IC50 [10]: 19.13 ± 0.12 µM
- IC50 [11]: 15.5 ± 0.93 µM
- IC50 [12]: 2.7 ± 0.3 µM
- IC50 [13]: 13.6 ± 0.44 µM
- IC50 [14]: 2.6 ± 0.17 µM
- IC50 [15]: 1.4 ± 0.11 µM

Structure (SMILES): O=C(CC(c1ccccc1)(c1ccccc1)c1ccccc1)Oc1cc(O)c2c(=O)cc(-c3ccccc3)oc2c1 [compound 5]
- inhibition at 10 µM [1, 16]: > 10%
- inhibition at 30 µM ([1]; NIH3T3, heading: Growth Inhibition ± SEM, 30 μM): < 10%
- inhibition at 10 µM [3, 19]: < 10%
- inhibition at 30 µM [3, 19]: < 10%
- inhibition at 10 µM [4, 20]: < 10%
- inhibition at 30 µM [4, 20]: < 10%
- inhibition at 10 µM [5, 19]: < 10%
- inhibition at 30 µM [5, 19]: < 10%
- inhibition at 10 µM [6, 19]: < 10%
- inhibition at 30 µM [6, 19]: < 10%
- inhibition at 10 µM [7, 21]: < 10%
- inhibition at 30 µM [7, 21]: < 10%
- cell growth-inhibiting effect (in words) ([9]; 10 and 30 μM): ineffective; also recorded: no cytotoxicity
